From patent publication US12649744B2, “N-(pyridin-2-yl)-6,7,8,9-tetrahydro-5h-5,8-epiminocyclohepta[c]pyridine-10-carboxamide derivatives and similar compounds as GPR65 modulators for the treatment of cancer” (PATHIOS THERAPEUTICS LIMITED, priority 2020, dated 2026)

Target: human recombinant GPR65 (Homo sapiens, UniProt Q8IYL9)
Assay: Human GPR65 cAMP HTRF antagonist assay
Type: cell-based
Settings: not given
From the text: The “Human GPR65 cyclic adenosine monophosphate (cAMP) Homogeneous Time Resolved Fluorescence (HTRF) antagonist assay”, or simply “cAMP assay”, as described below, can be used to measure the potency of GPR65 modulators, which is expressed as the concentration of compound required to reduce the increase in cAMP concentration upon GPR65 activation by 50% (i.e. an IC50).
Human GPR65 Cyclic Adenosine Monophosphate (cAMP) Homogeneous Time Resolved Fluorescence (HTRF) Antagonist Assay Procedure
IC50 data was obtained by the following procedure:
1321N1 human astrocytoma cells stably expressing human recombinant GPR65 (1321N1-hrGPR65 cells, EuroscreenFast) were cultured according to the vendor's instructions.
Compounds were tested for their ability to antagonise GPR65, through measuring the concentration of cytoplasmic cAMP following treatment of the cells at a pH of 7.2 to activate GPR65 signalling and addition of the compound to be tested. The extent to which the expected rise in cAMP concentration upon GPR65 activation was suppressed by the added compound is indicative of its potency. The assay was carried out according to EuroscreenFast assay methodology as follows.
On the day of the assay, test compounds were added to 384-well, low volume, white microtiter plates by acoustic dispensing. KRH buffer (5 mM KCl, 1.25 mM MgSO4, 124 mM NaCl, 25 mM HEPES, 13.3 mM Glucose, 1.25 mM KH2PO4 and 1.45 mM CaCl2) was adjusted to pH 6.5, pH 7.6 and pH 8.4 by adding NaOH. 1321N1-hGPR65 cells were rapidly thawed and diluted in KRH, pH 7.6 prior to centrifugation at 300×g for 5 min and resuspension in assay buffer (KRH, pH 7.6, supplemented with 1 mM 3-isobutyl-1-methylxanthine (IBMX) and 200 μM ethylenediaminetetraacetic acid (EDTA)). Cells were added to assay plates at a density of 2,000 cells per well in a volume of 5 μl. Assay plates were briefly centrifuged at 100×g and then incubated at room temperature for 30 min. Cells were stimulated by the addition of 5 μL KRH, pH 6.5, to achieve an assay pH of 7.2, while control wells received 5 μl KRH, pH 8.4 to achieve an assay pH of 7.9. Assay plates were briefly centrifuged at 100×g and then incubated at room temperature for 30 min.
Accumulation of cAMP was detected by cAMP HTRF kit (Cisbio). d2-labeled cAMP and cryptate-labeled anti-cAMP antibody in Lysis and Detection Buffer (Cisbio) were added to assay plates, and the plates were incubated at room temperature for 1 h. HTRF measurements were performed using a Pherastar FSX instrument. Acceptor and donor emission signals were measured at 665 nm and 620 nm, respectively, and HTRF ratios were calculated as signal665 nm/signal620nm×10^4. Data were normalised to high and low control values and fitted with 4-parameter logistic regression to determine hGPR65 IC50 values for the test compounds, which are shown in Table 1.

human recombinant GPR65, sequence (Q8IYL9 whole entry): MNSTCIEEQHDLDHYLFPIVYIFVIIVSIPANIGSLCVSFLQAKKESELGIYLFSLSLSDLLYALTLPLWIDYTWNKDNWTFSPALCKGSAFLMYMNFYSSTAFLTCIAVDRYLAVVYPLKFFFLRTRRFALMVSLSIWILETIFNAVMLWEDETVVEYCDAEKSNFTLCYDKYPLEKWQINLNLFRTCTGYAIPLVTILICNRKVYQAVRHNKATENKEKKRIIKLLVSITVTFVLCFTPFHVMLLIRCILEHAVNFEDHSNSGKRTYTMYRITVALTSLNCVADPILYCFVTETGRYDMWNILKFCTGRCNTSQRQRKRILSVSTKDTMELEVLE

`O=C(Nc1cncc(Cl)c1)N1C2CCC1c1ccnc(F)c1C2` (racemic) [Compound 9, (±)-N-(5-chloropyridin-3-yl)-1-fluoro-6,7,8,9-tetrahydro-5H-5,8-epiminocyclohepta-[c]pyridine-10-carboxamide] and `O=C(Nc1cc(Cl)c(Cl)cn1)N1C2CCC1c1c[nH]c(=O)c(F)c1C2` (racemic) [Compound 11, (±)-N-(4,5-dichloropyridin-2-yl)-4-fluoro-3-oxo-3,5,6,7,8,9-hexahydro-2H-6,9-epiminocyclohepta[c]pyridine-10-carboxamide] cannot be ordered by IC50: under 0.5 µM for the first, under 0.5 µM for the second.

Same assay, conditions: 1321N1-hrGPR65 cells, assay pH of 7.2, cAMP HTRF; read-out: hGPR65 IC50

First: O=C(Nc1cnc(C(F)(F)F)cn1)N1C2CCC1c1cncnc1C2 (racemic) [Compound 6, (±)-N-(5-(trifluoromethyl)pyrazin-2-yl)-6,7,8,9-tetrahydro-5H-5,8-epiminocyclohepta-[d]pyrimidine-10-carboxamide]
Second: O=C(Nc1cc(Cl)c(C(F)(F)F)cn1)N1C2CCC1c1cncnc1C2 (racemic) [Compound 28, (±)-N-(4-chloro-5-(trifluoromethyl)pyridin-2-yl)-6,7,8,9-tetrahydro-5H-5,8-epiminocyclo-hepta[d]pyrimidine-10-carboxamide]
The IC50 of the first is higher: over 5 µM for the first, 0.5 to 5 µM for the second.

First: O=C(Nc1ccc(Oc2ccccc2)nc1)N1C2CCC1c1ccnc(F)c1C2 (racemic) [Compound 8, (±)-1-fluoro-N-(6-phenoxypyridin-3-yl)-6,7,8,9-tetrahydro-5H-5,8-epiminocyclohepta-[c]pyridine-10-carboxamide]
Second: O=C(Nc1noc(-c2ccccc2)n1)N1[C@H]2CC[C@@H]1c1ccnc(F)c1C2 [Compound 22, (5R,8S)-1-fluoro-N-(5-phenyl-1,2,4-oxadiazol-3-yl)-6,7,8,9-tetrahydro-5H-5,8-epiminocyclohepta[c]pyridine-10-carboxamide]
The IC50 of the first is higher: 0.5 to 5 µM for the first, under 0.5 µM for the second.

`O=C(Nc1cc(Cl)c(C(F)(F)F)cn1)N1[C@H]2CC[C@@H]1c1ccnc(F)c1C2` [Compound 1, (5R,8S)-N-(4-chloro-5-(trifluoromethyl)pyridin-2-yl)-1-fluoro-6,7,8,9-tetrahydro-5H-5,8-epiminocyclohepta[c]pyridine-10-carboxamide] and `O=C(Nc1cc(Cl)c(Cl)cn1)N1[C@H]2CC[C@@H]1c1ccnc(F)c1C2` [Compound 2, (5R,8S)-N-(4,5-dichloropyridin-2-yl)-1-fluoro-6,7,8,9-tetrahydro-5H-5,8-epiminocyclohepta[c]pyridine-10-carboxamide] cannot be ordered by IC50: under 0.5 µM for the first, under 0.5 µM for the second.

`O=C(Nc1ccc(Cl)c(Cl)n1)N1[C@H]2CC[C@@H]1c1ccnc(F)c1C2` [Compound 3, (5R,8S)-N-(5,6-dichloropyridin-2-yl)-1-fluoro-6,7,8,9-tetrahydro-5H-5,8-epiminocyclohepta[c]pyridine-10-carboxamide] and `O=C(Nc1nc(Cl)c(Cl)cc1F)N1[C@H]2CC[C@@H]1c1ccnc(F)c1C2` [Compound 20, (5R,8S)-N-(5,6-dichloro-3-fluoropyridin-2-yl)-1-fluoro-6,7,8,9-tetrahydro-5H-5,8-epiminocyclohepta[c]pyridine-10-carboxamide] fall in the same range of IC50: 0.5 to 5 µM for the first, 0.5 to 5 µM for the second.

`O=C(Nc1cc(Cl)c(Cl)cn1)N1[C@H]2CC[C@@H]1c1c[nH]c(=O)cc1C2` [Compound 4, (6S,9R)-N-(4,5-dichloropyridin-2-yl)-3-oxo-3,5,6,7,8,9-hexahydro-2H-6,9-epiminocyclo-hepta[c]pyridine-10-carboxamide] and `O=C(Nc1cnc(Cl)c(Cl)c1)N1[C@H]2CC[C@@H]1c1c[nH]c(=O)cc1C2` [Compound 13, (6S,9R)-N-(5,6-dichloropyridin-3-yl)-3-oxo-3,5,6,7,8,9-hexahydro-2H-6,9-epiminocyclo-hepta[c]pyridine-10-carboxamide] cannot be ordered by IC50: under 0.5 µM for the first, under 0.5 µM for the second.

First: O=C(Nc1ccc(Cl)c(Cl)n1)N1[C@H]2CC[C@@H]1c1c[nH]c(=O)cc1C2 [Compound 5, (6S,9R)-N-(5,6-dichloropyridin-2-yl)-3-oxo-3,5,6,7,8,9-hexahydro-2H-6,9-epiminocyclo-hepta[c]pyridine-10-carboxamide]
Second: O=C(Nc1cc(Cl)c(C(F)(F)F)cn1)N1[C@H]2CC[C@@H]1c1c[nH]c(=O)cc1C2 [Compound 17, (6S,9R)-N-(4-chloro-5-(trifluoromethyl)pyridin-2-yl)-3-oxo-3,5,6,7,8,9-hexahydro-2H-6,9-epiminocyclohepta[c]pyridine-10-carboxamide]
The IC50 of the first is higher: over 5 µM for the first, under 0.5 µM for the second. The second is the more potent here.

First: O=C(Nc1ccc2nc(C(F)(F)F)ccc2c1)N1[C@H]2CC[C@@H]1c1c[nH]c(=O)cc1C2 [Compound 10, (6S,9R)-3-oxo-N-(2-(trifluoromethyl)quinolin-6-yl)-3,5,6,7,8,9-hexahydro-2H-6,9-epiminocyclohepta[c]pyridine-10-carboxamide]
Second: O=C(Nc1cc(C(F)(F)F)ncc1F)N1[C@H]2CC[C@@H]1c1c[nH]c(=O)cc1C2 [Compound 14, (6S,9R)-N-(5-fluoro-2-(trifluoromethyl)pyridin-4-yl)-3-oxo-3,5,6,7,8,9-hexahydro-2H-6,9-epiminocyclohepta[c]pyridine-10-carboxamide]
The IC50 of the first is lower: under 0.5 µM for the first, 0.5 to 5 µM for the second. The first is the more potent here.

`O=C(Nc1cnc(-n2nccn2)c(Cl)c1)N1[C@H]2CC[C@@H]1c1ccnc(F)c1C2` [Compound 15, (5R,8S)-N-(5-chloro-6-(2H-1,2,3-triazol-2-yl)pyridin-3-yl)-1-fluoro-6,7,8,9-tetrahydro-5H-5,8-epiminocyclohepta[c]pyridine-10-carboxamide] and `O=C(Nc1cnc(Cl)cc1F)N1[C@H]2CC[C@@H]1c1ccnc(F)c1C2` [Compound 16, (5R,8S)-N-(6-chloro-4-fluoropyridin-3-yl)-1-fluoro-6,7,8,9-tetrahydro-5H-5,8-epiminocyclohepta[c]pyridine-10-carboxamide] fall in the same range of IC50: 0.5 to 5 µM for the first, 0.5 to 5 µM for the second.

First: O=C(Nc1cc(C(F)(F)F)ncc1F)N1[C@H]2CC[C@@H]1c1ccnc(F)c1C2 [Compound 18, (5R,8S)-1-fluoro-N-(5-fluoro-2-(trifluoromethyl)pyridin-4-yl)-6,7,8,9-tetrahydro-5H-5,8-epiminocyclohepta[c]pyridine-10-carboxamide]
Second: O=C(Nc1ccc(C(F)(F)F)cn1)N1[C@H]2CC[C@@H]1c1ccnc(F)c1C2 [Compound 19, (5R,8S)-1-fluoro-N-(5-(trifluoromethyl)pyridin-2-yl)-6,7,8,9-tetrahydro-5H-5,8-epiminocyclohepta[c]pyridine-10-carboxamide]
The IC50 of the first is higher: 0.5 to 5 µM for the first, under 0.5 µM for the second.

`Cc1nonc1NC(=O)N1[C@H]2CC[C@@H]1c1ccnc(F)c1C2` [Compound 21, (5R,8S)-1-fluoro-N-(4-methyl-1,2,5-oxadiazol-3-yl)-6,7,8,9-tetrahydro-5H-5,8-epiminocyclohepta[c]pyridine-10-carboxamide] and `CCc1nnc(NC(=O)N2[C@H]3CC[C@@H]2c2ccnc(F)c2C3)s1` [Compound 26, (5R,8S)-N-(5-ethyl-1,3,4-thiadiazol-2-yl)-1-fluoro-6,7,8,9-tetrahydro-5H-5,8-epiminocyclohepta[c]pyridine-10-carboxamide] fall in the same range of IC50: 0.5 to 5 µM for the first, 0.5 to 5 µM for the second.

First: O=C(Nc1nnc(C(F)(F)F)s1)N1[C@H]2CC[C@@H]1c1ccnc(F)c1C2 [Compound 23, (5R,8S)-1-fluoro-N-(5-(trifluoromethyl)-1,3,4-thiadiazol-2-yl)-6,7,8,9-tetrahydro-5H-5,8-epiminocyclohepta[c]pyridine-10-carboxamide]
Second: O=C(Nc1ncc(C(F)(F)F)cn1)N1[C@H]2CC[C@@H]1c1ccnc(F)c1C2 [Compound 25, (5R,8S)-1-fluoro-N-(5-(trifluoromethyl)pyrimidin-2-yl)-6,7,8,9-tetrahydro-5H-5,8-epiminocyclohepta[c]pyridine-10-carboxamide]
The IC50 of the first is lower: under 0.5 µM for the first, 0.5 to 5 µM for the second.

First: O=C(Nc1nnc(-c2ccncc2)s1)N1[C@H]2CC[C@@H]1c1ccnc(F)c1C2 [Compound 24, (5R,8S)-1-fluoro-N-(5-(pyridin-4-yl)-1,3,4-thiadiazol-2-yl)-6,7,8,9-tetrahydro-5H-5,8-epiminocyclohepta[c]pyridine-10-carboxamide]
Second: O=C(Nc1cc2cn(C(F)F)nc2cn1)N1[C@H]2CC[C@@H]1c1ccnc(F)c1C2 [Compound 27, (5R,8S)-N-(2-(difluoromethyl)-2H-pyrazolo[3,4-c]pyridin-5-yl)-1-fluoro-6,7,8,9-tetrahydro-5H-5,8-epiminocyclohepta[c]pyridine-10-carboxamide]
The IC50 of the first is lower: 0.5 to 5 µM for the first, over 5 µM for the second. The first is the more potent here.
